Structures are written as SMILES. Active and inactive are the calls of the source. The rule behind the calls is not given here.

The target of assay [1] is T1, Amine oxidase [copper-containing] 3 (Rattus norvegicus, UniProt O08590).
T1 sequence (O08590 whole entry): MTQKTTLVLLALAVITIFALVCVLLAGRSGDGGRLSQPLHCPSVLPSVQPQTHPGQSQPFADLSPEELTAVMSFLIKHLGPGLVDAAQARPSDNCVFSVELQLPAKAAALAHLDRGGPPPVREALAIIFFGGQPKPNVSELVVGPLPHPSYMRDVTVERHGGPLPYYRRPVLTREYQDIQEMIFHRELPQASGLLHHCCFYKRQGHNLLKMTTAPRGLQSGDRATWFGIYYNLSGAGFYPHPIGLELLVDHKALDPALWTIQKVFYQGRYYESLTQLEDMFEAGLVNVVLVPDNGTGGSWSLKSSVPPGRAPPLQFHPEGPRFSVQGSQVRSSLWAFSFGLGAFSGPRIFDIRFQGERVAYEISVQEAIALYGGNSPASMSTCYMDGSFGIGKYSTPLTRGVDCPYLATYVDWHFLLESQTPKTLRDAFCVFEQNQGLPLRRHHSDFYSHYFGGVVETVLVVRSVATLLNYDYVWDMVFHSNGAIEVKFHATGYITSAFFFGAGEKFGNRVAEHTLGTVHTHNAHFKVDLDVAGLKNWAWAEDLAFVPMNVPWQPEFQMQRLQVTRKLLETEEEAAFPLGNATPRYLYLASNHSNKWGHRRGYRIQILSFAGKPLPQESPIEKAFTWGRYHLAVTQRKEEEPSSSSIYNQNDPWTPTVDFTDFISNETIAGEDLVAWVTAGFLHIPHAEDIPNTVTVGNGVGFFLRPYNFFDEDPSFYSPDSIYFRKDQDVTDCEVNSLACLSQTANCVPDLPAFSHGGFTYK
Description: Inhibition of rat VAP-1 expressed in CHO cells using [14C]-benzylamine as substrate preincubated for 30 mins prior to substrate addition measured after 1 hr by scintillation spectrometric analysis. The class given is cell-based.

Assay [2] concerns the target T2, Amine oxidase [copper-containing] 3 (Homo sapiens, UniProt Q16853).
T2 sequence (Q16853 whole entry): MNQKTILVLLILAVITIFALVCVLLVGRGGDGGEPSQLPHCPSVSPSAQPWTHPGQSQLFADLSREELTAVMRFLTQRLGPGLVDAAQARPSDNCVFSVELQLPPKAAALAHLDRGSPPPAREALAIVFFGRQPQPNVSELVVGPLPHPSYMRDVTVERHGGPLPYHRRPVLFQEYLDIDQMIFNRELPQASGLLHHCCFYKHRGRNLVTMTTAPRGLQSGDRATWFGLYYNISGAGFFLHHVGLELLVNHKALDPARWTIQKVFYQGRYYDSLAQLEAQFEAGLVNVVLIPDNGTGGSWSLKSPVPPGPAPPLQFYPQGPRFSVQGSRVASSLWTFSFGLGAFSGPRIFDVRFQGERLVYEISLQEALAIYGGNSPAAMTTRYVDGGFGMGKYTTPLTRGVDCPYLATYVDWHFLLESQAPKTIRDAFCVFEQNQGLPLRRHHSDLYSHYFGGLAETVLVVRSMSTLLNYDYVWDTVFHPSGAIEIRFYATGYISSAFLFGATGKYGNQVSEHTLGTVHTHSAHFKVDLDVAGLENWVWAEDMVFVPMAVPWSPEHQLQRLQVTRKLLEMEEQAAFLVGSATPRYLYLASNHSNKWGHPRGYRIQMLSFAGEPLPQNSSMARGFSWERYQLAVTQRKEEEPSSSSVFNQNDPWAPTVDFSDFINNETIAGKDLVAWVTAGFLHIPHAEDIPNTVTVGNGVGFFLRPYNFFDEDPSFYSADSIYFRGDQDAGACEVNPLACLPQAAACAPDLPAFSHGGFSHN
Briefly: Inhibition of human VAP-1 expressed in CHO cells using [14C]-benzylamine as substrate preincubated for 30 mins prior to substrate addition measured after 1 hr by scintillation spectrometric analysis. The class given is cell-based.

For assay [3], the system named is Rattus norvegicus. Briefly: Inhibition of VAP-1 in streptozotocin-induced diabetic Sprague-Dawley rat plasma using [14C]-benzylamine as substrate at 10 mg/kg, po administered for 2 weeks after streptozotocin-challenge by scintillation spectrometric analysis. It is filed as functional, organism-based. Further details: dose 10 mg/kg.
The species named for assay [4] is Homo sapiens. Briefly: Selectivity ratio of IC50 for human recombinant MAO-B to IC50 for human VAP-1.
Assay [5] deals with T3, Amine oxidase [flavin-containing] B (Homo sapiens, UniProt P27338).
T3 sequence (P27338 whole entry): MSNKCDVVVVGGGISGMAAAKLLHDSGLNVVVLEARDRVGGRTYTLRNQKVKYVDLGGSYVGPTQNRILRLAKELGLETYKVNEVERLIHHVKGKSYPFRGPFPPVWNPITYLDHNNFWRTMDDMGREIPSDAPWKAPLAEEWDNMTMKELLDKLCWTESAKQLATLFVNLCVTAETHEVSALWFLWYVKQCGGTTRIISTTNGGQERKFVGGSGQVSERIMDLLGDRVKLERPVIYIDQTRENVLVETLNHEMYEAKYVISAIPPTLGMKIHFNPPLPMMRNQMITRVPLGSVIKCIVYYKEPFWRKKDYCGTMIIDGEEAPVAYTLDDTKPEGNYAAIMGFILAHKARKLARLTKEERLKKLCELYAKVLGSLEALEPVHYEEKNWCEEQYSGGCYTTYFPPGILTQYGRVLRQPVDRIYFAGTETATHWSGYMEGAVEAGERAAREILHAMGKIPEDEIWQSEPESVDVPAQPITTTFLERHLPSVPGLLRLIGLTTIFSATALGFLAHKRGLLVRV
Briefly: Inhibition of human recombinant MAO-B using benzylamine as substrate after 1 hr by fluorometric assay.

The species named for assay [6] is Homo sapiens. Description: Selectivity ratio of IC50 for human recombinant MAO-A to IC50 for human VAP-1.
Assay [7] deals with T4, Amine oxidase [flavin-containing] A (Homo sapiens, UniProt P21397).
T4 sequence (P21397 whole entry): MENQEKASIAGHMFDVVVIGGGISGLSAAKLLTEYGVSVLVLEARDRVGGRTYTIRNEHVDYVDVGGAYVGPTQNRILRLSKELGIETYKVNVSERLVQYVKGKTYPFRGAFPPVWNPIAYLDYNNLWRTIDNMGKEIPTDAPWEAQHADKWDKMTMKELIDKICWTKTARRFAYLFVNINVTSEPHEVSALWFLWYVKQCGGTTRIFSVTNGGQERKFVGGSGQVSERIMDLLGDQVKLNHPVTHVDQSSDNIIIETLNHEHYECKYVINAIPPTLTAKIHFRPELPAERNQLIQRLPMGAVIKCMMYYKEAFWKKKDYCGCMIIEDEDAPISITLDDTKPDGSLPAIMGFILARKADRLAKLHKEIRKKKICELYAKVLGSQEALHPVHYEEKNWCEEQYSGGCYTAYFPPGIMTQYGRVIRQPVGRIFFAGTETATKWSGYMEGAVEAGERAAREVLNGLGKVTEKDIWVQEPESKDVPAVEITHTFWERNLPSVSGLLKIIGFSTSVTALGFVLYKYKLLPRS
Briefly: Inhibition of human recombinant MAO-A using 5-hydroxytryptamine as substrate after 1 hr by fluorometric assay.

Assay [8] concerns Rattus norvegicus. Briefly: Inhibition of ocular permeability in streptozotocin-induced diabetic Sprague-Dawley rat at 10 mg/kg, po administered for 2 weeks after streptozotocin-challenge measured 24 hrs after final administration of compound. It is filed as functional, organism-based. Further details: dose 10 mg/kg. The following applies: Eye.

As to `CC(=O)Nc1nc(CCc2ccc(CCc3c[nH]c(N)n3)cc2)cs1`, the IC50 (as a rule, the concentration that inhibits the measured activity by half) was 0.018 µM in assay [1] and 2.2 µM in assay [2].
Taken in the same sequence, the figures for `Nc1cc2ccccc2[nH]1` were 63 µM and over 100 µM.
On to `Nc1ncc[nH]1`, for which the IC50 in assay [1] is 90 µM; in assay [2], over 100 µM.
Taken in the same sequence, the figures for `Nc1nc(Cc2ccccc2)c[nH]1` were 0.42 µM and 32 µM.
The matching figures for `Cc1ccc2nc(N)[nH]c2c1`: 9.3 µM and over 100 µM.
The matching figures for `NCc1nc2ccccc2[nH]1`: over 100 µM and over 100 µM.
In the case of `CC(=O)Nc1nc(CCc2ccc(-c3c[nH]c(N)n3)cc2)cs1`, the IC50 was 0.15 µM in assay [1] and 13 µM in assay [2].
Regarding `CC(=O)Nc1nc(CCc2ccc(Cc3c[nH]c(N)n3)cc2)cs1`, the inhibition result in the assay on Rattus norvegicus [3] and in the assay with Rattus norvegicus [8] was “Active” in each case. In addition, the Ratio IC50 in the assay filed under Homo sapiens [4] and in the assay listed under Homo sapiens [6] was over 580 each time. The IC50 in assay [5] is 11 µM; in assay [1], 0.0051 µM; in assay [7], over 100 µM; in assay [2] it was 0.019 µM.
Regarding `c1ccc(NC2=NCCN2)cc1`, the IC50 in assay [1] and in assay [2] was over 100 µM each time.
For `Nc1nc(-c2ccccc2)c[nH]1`, the half-inhibitory concentration (IC50) in assay [1] is 44 µM; in assay [2], over 100 µM.
With `CC(=O)Nc1nc(CCc2ccc(NC(=N)N)cc2)cs1`, the IC50 in assay [5] is 60 µM; in assay [7] it was over 100 µM.
With `c1ccc2[nH]cnc2c1` [BENZIMIDAZOLE], the IC50 in assay [1] and in assay [2] was over 100 µM throughout.
For `Cc1cccc2[nH]c(N)nc12`, the IC50 in assay [1] is 1 µM; in assay [2], over 100 µM.
The matching figures for `Cn1c(N)nc2ccccc21`: 80 µM and over 100 µM.
Taken in the same sequence, the figures for `N=C(N)Nc1ccccc1` [PHENYLGUANIDINE] were 78 µM and over 100 µM.
The matching figures for `Nc1nc2ccccc2[nH]1`: 1 µM and 4.1 µM.
As to `Nc1ncc(CCc2ccccc2)[nH]1`, the IC50 in assay [1] is 4.8 µM; in assay [2] it was over 100 µM.
Taken in the same sequence, the figures for `NC1=NCCN1c1ccccc1` were over 100 µM and over 100 µM.

Source of the values: ChEMBL document CHEMBL2390878, “Novel 1H-imidazol-2-amine derivatives as potent and orally active vascular adhesion protein-1 (VAP-1) inhibitors for diabetic macular edema treatment” (Bioorg Med Chem, 2013).
